This note sets out measurements from patent US12678509B2, “Inhibitor of apoptosis (IAP) protein antagonists” (Sanford Burnham Prebys Medical Discovery Institute, priority 2019, dated 2026).

Each structure is given as a SMILES string. pIC50: −log10 of the molar value.

In one assay the test system is AML-SH-065. Nature of the assay: Cell viability in patient derived AML samples (CellTiterGlo, 72 h). The class given is cell-based, human. In outline:
(§1)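 Ficoll-purified peripheral blood mononuclear cells from AML patients, kept in mTeSR1 with supplements, were incubated 72 h with serially diluted IAP inhibitors in triplicate. Viability by CellTiterGlo luminescence normalised to DMSO controls; IC50 from four-parameter variable-slope fit.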

The next assay has as its system AML-SH-074. The description is as above. Format: cell-based, human. In outline: as §1
Another assay concerns AML-SH-075. The description is as above. Format: cell-based, human. In outline:
as §1

For the next assay, the system named is resting CD4+ T cells. Nature of the assay: T cell activation (CD69 and CD25 expression, flow cytometry). The class given is cell-based. As to conditions: resting CD4+ T cells of healthy human donors (FIG. 2). The procedure:
Compound 18a was also tested for its impact on T cell activation and cytokine release. Peripheral blood mononuclear cells (PBMC) were isolated by Ficoll density gradient centrifugation (Histopaque, Sigma Aldrich) from buffy coats of three healthy human donors (San Diego Blood Bank). Resting CD4^+ T cells were subsequently isolated by negative selection using magnetic beads (Miltenyi Biotec). Cells were treated with compound 18a, or 50 ng/ml Phorbol myristate acetate (PMA) and 1 μM lonomycin, or Dynabeads Human T-Activator CD3/CD28 (ThermoFisher Scientific) at a bead-to-cell ratio of 1:1, or left untreated. Expression of the early and late activation markers CD69 and CD25 on CD4+ T cells was assessed by flow cytometry using a Phycoerythrin-labeled anti-CD69 antibody (BioLegend; Cat #310906) and an Allophycocyanin-labeled anti-CD25 antibody (BioLegend; Cat #302610). Cytokine expression levels in cultures of PBMC or resting CD4+ T cells were analyzed using the LEGENDplex Human Inflammation Panel 13-plex (BioLegend).

In the case of `CN[C@@H](C)C(=O)N[C@H]1CCS[C@H]2CC(C)(C)[C@@H](C(=O)N[C@H]3c4ccccc4C[C@H]3OCC#CC#CCO[C@@H]3Cc4ccccc4[C@@H]3NC(=O)[C@H]3N4C(=O)[C@@H](NC(=O)[C@H](C)NC)CCS[C@H]4CC3(C)C)N2C1=O` [Compound 18a, (2S)-1-{[(4S,7S,9aS)-74{(1S,2R)-2-[(6-{[(1S,2R)-1-({[(4S,7S,9aS)-8,8-Dimethyl-4-{[(2S)-2-(methylammonio)propanoyl]amino}-5-oxooctahydropyrrolo[2,1-b][1,3]thiazepin-7-yl]carbonyl}amino)-2,3-dihydro-1H-inden-2-yl]oxy}hexa-2,4-diyn-1-yl)oxy]-2,3-dihydro-1H-inden-1-yl}carbamoyl)-8,8-dimethyl-5-oxooctahydropyrrolo[2,1-b][1,3]thiazepinyl]amino}-N-methyl-1-oxopropan-2-ammonium dichloride], the pIC50 in the assay on AML-SH-065 (Homo sapiens, 72 h, read-out: AML-SH-065 IC50) is over 8.00; in the assay on AML-SH-074 (Homo sapiens, 72 h, read-out: AML-SH-074 IC50) it was 6.00 to 7.00; in the assay on AML-SH-075 (Homo sapiens, 72 h, read-out: AML-SH-075 IC50), 7.00 to 8.00. Further, the “AML-SH-065 Efficacy” value in the assay on AML-SH-065 (patient derived AML sample AML-SH-065, 72 h, cell viability at max. concentration) is recorded as “I (I < 10%)”. Further, the “AML-SH-074 Efficacy” value in the assay with AML-SH-074 (patient derived AML sample AML-SH-074, 72 h, cell viability at max. concentration) is “I (I < 10%)”. Moreover, the “AML-SH-075 Efficacy” value in the assay on AML-SH-075 (patient derived AML sample AML-SH-075, 72 h, cell viability at max. concentration) is reported as “I (I < 10%)”. In addition, the “activation of resting CD4+ T cells (CD69, CD25)” value in the assay with resting CD4+ T cells was “did not induce activation of resting CD4+ T cells”.
